Measured values taken from patent publication US10857228B2, “Adjuvant for vaccines, vaccine, and immunity induction method” (The University of Tokyo, priority 2015, dated 2020).

B1: granulocyte monocyte colony stimulating factor (protein, UniProt P01587 18-141, looked up)
Granulocyte-macrophage …: APTRSPITVTRPWKHVEAIKEALNLLDDMPVTLNEEVEVVSNEFSFKKLTCVQTRLKIFEQGLRGNFTKLKGALNMTASYYQTYCPPTPETDCETQVTTYADFIDSLKTFLTDIPFECKKPGQK
notes: inducer of expression of Raldh2; added with CpG ODN to stimulate spleen cDCs

Assays:
[1] = test system: pulmonary mucosa lamina propria cells; assay: Cytokine production of pulmonary mucosa lamina propria cells after intranasal booster; assay type: in vivo, mice; settings: 7 days after intranasal OVA, cultured 4 days with OVA 100 μg/ml
Protocol: IFA, IFA+OVA+CpG ODN, IFA+OVA+curdlan, and IFA+OVA+CpG ODN+curdlan were administered to mice by intramuscular injection, respectively. On Day 35, 1 μg/mouse of OVA was administered by intranasal administration to perform booster immunization, and, 7 days later antigen-specific total IgG in the serum and IgA in the bronchoalveolar lavage fluid were measured by ELISA.
In the experiment of 9, 7 days after the intranasal administration of OVA, pulmonary mucosa lamina propria cells were extracted from the mice and cultured in the presence of the antigen (OVA 100 μg/ml) for 4 days and IFN-γ, IL-4, and IL-17 production was measured by ELISA.

Dectin-1 = assay: Expression of Dectin-1 in spleen-derived dendritic cells with CpG ODN stimulation; assay type: cell-based; settings: spleen-derived dendritic cells stimulated with CpG ODN
Protocol: Next, the expression of Dectin-1, which is a receptor that recognizes β-1,3-glucan, in dendritic cells was measured. The summary and the result of the experiment are illustrated in FIG. 12. As illustrated in the left panel in the figure, it was confirmed that, in spleen-derived dendritic cells, the expression of Dectin-1 is not high, but the expression of Dectin-1 increases more than 3 times by stimulating the cells with CpG ODN. Dectin-1 is known to induce the Th17 response. These indicate the mechanism of the present invention in which the addition of both of CpG ODN and β-1,3-glucan to the adjuvant makes dendritic cells easy to receive the stimulation with β-1,3-glucan and induces the Th17 response.

CD57BL/6 mice = assay: IgA induction by spleen cDCs stimulated with OVA, CpG ODN and GM-CSF, intraperitoneally administered to mice; assay type: in vivo; settings: spleen cDCs stimulated 24 hours with OVA 100 μg/ml and adjuvant, given i.p. Day 0 and Day 14; oral OVA Day 21 to 25; ELISA Day 32
Protocol: Spleen cDCs were stimulated for 24 hours using ovalbumin (OVA; 100 μg/ml) as an antigen and CpG ODN 1668 (1 μg/ml) only or the combination of CpG ODN and GM-CSF (10 ng/ml) as an adjuvant.
Here, the fractioning of murine small intestine mucosa lamina propria cells with the dendritic cell marker CD11c and the macrophage marker CD11b produces the 4 groups: R1 (dendritic cells) (CD11c high CD11b low), R2 (dendritic cells) (CD11c high CD11b high), R3 (macrophages) (CD11c int CD11b int), R4 (acidophiles) (CD11c int CD11b high). The R2 dendritic cells specifically express Raldh2 and induce the Th17 response and the IgA production (Non-Patent Literature 1). Therefore, the R2 dendritic cells were stimulated with OVA (100 μg/ml) and CpG ODN 1668 (1 μg/ml) as positive control. Spleen cDCs were stimulated with OVA (100 μg/ml) and CpG ODN 1668 (1 μg/ml) with or without GM-CSF (10 ng/ml).
On Day 0 and Day 14 after the stimulation, dendritic cells (each 5×10^4 cells) (or PBS) which took up the antigen were intraperitoneally administered into CD57BL/6 mice. On Day 21 to Day 25, 1 mg/mouse of OVA was orally administered daily and, on Day 32, total of antigen-specific IpG in serum and antigen-specific IgA in feces were measured by ELISA.

Raldh2 = assay: Induction of Raldh2 mRNA expression in spleen cDCs (RT-PCR); assay type: cell-based; settings: spleen cDCs stimulated 24 hours
Protocol: Next, zymosan (component of yeast cell wall of Saccharomyces cerevisiae; 25 ng/ml) and curdlan ((β-1,3-glucan derived from Agrobacterium spp., Alcaligenes spp.; 25 ng/ml) were used as glucan-based compound. Spleen cDCs were stimulated with these substances for 24 hours and, after collecting RNA, the expression of Raldh2 mRNA was measured by RT-PCR.

Molecule	IFN-γ production [1]	increase of expression of Dectin-1 (Dectin-1)	antigen-specific IgA in feces (CD57BL/6 mice)	expression of Raldh2 mRNA (Raldh2)
CpG ODN 1668	induced	more than 3 times	induced little production of IgA	
curdlan	induced			induced the expression of Raldh2
B1			induced IgA production more than the R2 dendritic cells	induced the expression of Raldh2
